US20180303092A1, “AMINE SALTS OF CARBOXYLIC ACID HERBICIDES” (Taminco BVBA, priority 2017, published 2018)

Tests used:
Assay type in all cases: physicochemical
[1] = Maximum loading of herbicide amine salt in water (Karl-Fischer water content, HCl titration of amine); settings: for Max Load amine g/L: amine in maximum loaded solution in water; for Max Load g ae/L: maximum loaded solution in water, acid equivalent of herbicide; for maximum loading: summary text b115
Description: Neutralizing acidic herbicides (e.g., 2,4-D, dicamba, glyphosate, glufosinate) with amines can result in the formation of highly water soluble salts. However, practical inconveniences may occur when adding liquid amines to the solid herbicides, such as the formation of wetted powder, poorly mixed slurries, two apparently non-mixed layers, etc. To efficiently prepare a salt, the method, shown as a flowchart in FIG. 1, has been developed.
Referring to FIG. 1, step 100 involves using a mass balance to weigh 25 g of the active ingredient (a solid acidic herbicide, such as 2,4-D or dicamba) in a glass bottle. An equimolar amount of a basic amine (typically a liquid) is added to this glass bottle. Last, 2 mL of water is added. After adding the three compounds, the bottle is capped and placed on a shaking device for at least 12 hours.
At step 109, theoretical neutralization has taken place. The salt concentration can be quantified by titration. To confirm that the solid layer is solid salt and the top layer is a saturated (max. loading) solution, a small amount of water is added (the amounts of water should be small enough to avoid a complete dissolution of the solid salt). After re-equilibrium during at least 12 hours of shaking, and under the condition that two phases are still present, the salt concentration is determined again. If salt concentrations are identical as the original values, then it can be concluded that a maximum loaded solution was obtained.
To determine maximum loading of the salt in water, the method shown in the flowchart of FIG. 1 was used. The resulting sample contained at least two layers: a top layer of liquid and a bottom layer of solid salt. A water and amine determination was made of the top layer.
To check the water content, a well-established method of Karl-Fischer was used. This method gives an accurate wt % of H2O in the sample.
To determine the amine content, HCl-titration was used. HCl (0.1 N) was used as the titrant, and methanol was used as the solvent. 100-400 mg of the sample was taken from the liquid layer so that only 10-20 mL of the titrant was needed. The result was given in an EP. The following calculation was used to obtain the amine wt %:
In general, the sample's liquid phase only contains three components: water, free amine, and the herbicide salt. Therefore, the following calculation was used to determine the salt wt %:
wt %salt=100−wt %amine−wt %water
The results below are reported in g a.e./L (acid equivalent). […] The results were calculated using the following equation: […]
The MMs in the equation above are molecular weights (g/mol). ρ is the density of the liquid (g/mL), which may be measured using the density meter Anton Paar DMA 4500. F is a factor that takes into account the amount of base or acid groups on the amine or acid, respectively.
The g amine/L reported below was calculated using the following equation: […]
25.02 g of dicamba herbicide was mixed with 4.16 g of 1,2-DAP and 5.88 g of water. The ingredients were shaken for a minimum of 24 hours at room temperature (20° C.) to obtain an oversaturated salt solution (with precipitated salt crystals). Theoretically, 1 mol of dicamba can be neutralized using 0.5 mol of 1,2-DAP. Water was gradually added until all the salt crystals were dissolved to form a maximum loaded clear solution. The loading of the active ingredient was determined based on the amine content by HCl titration and the water content by Karl-Fischer.
Using the same methodology as described in Example 1, high-loaded 2,4-D salt solutions were prepared.

[2] = Viscosity of max load amine salt solutions (Brookfield viscometer, nr. 87 spindle); settings: 20° C.
Protocol: The viscosity of the solutions prepared as above was determined using the Brookfield nr. 87 spindle. The applied speed depended on the viscosity of the sample. The torque applied was 50-80% of the machine's maximum. The results are expressed as mPa.
(§1) Several amine herbicide formulations were prepared as described above in Examples 1 and 2. The viscosity of various formulations was measured using a Brookfield viscometer with nr.87 spindle at 20° C. Wettability was measured by visually measuring the contact angle after placing a standard droplet on a parafilm layer (hydrophobic).

[3] = Wetting properties: contact angle of a droplet of max load product on parafilm layer; settings: droplet on hydrophobic parafilm, read by eye
Protocol: A visual test was used to determine the wetting property. FIG. 2 is an illustration of the test. A small droplet 11 of the max load product mentioned above was deposited by a syringe pointed vertically down onto a parafilm layer 10, which is hydrophobic. A profile picture of the droplet 11 was then captured by a camera. The approximate contact angle 13 of the droplet 11 with the parafilm layer 10 was then measured by eye using a protractor.
The wetting angle determines the surface energy or chemical affinity of the salt solution with the apolar reference material. A high wetting angle indicates a […] of hydrophobic surfaces.
as §1

[4] = dicamba amine salts, room temperature (20° C.)
[5] = dicamba amine salt concentrates

Structure (SMILES)	Maximum loading, amine ([1]; dicamba 1,2-DAP salt, Example 1) [g amine/L]	Max Load amine g/L ([1]; dicamba amine salts) [amine g/L]	Max Load g ae/L [1, 4] [g ae/L]	maximum loading ([1]; dicamba amine salts) [g/L]	Viscosity [2, 5]	Wetting Angle [3, 5] [°]	Max Load amine g/L ([1]; 2,4-D amine salts) [amine g/L]	Max Load g ae/L ([1]; 2,4-D amine salts) [g ae/L]	Viscosity ([2]; 2,4-D amine salts)	Wetting Angle ([3]; 2,4-D amine salts) [°]
CC(N)CN.COc1c(Cl)ccc(Cl)c1C(=O)O.COc1c(Cl)ccc(Cl)c1C(=O)O [Dicamba 1,2-DAP salt]	365.9	365.9	803.2	803.2	218.0 mPa	105	–	–	–	–
CN(C)CCO.O=C(O)COc1ccc(Cl)cc1Cl [2,4-D DMAE salt]	–	–	–	–	–	–	316.9	624.7	74.0 mPa	105
CNCCO.COc1c(Cl)ccc(Cl)c1C(=O)O [Dicamba MMEA salt]	–	357.7	928.8	–	3,967.0 mPa	120	–	–	–	–
COc1c(Cl)ccc(Cl)c1C(=O)[O-].C[N+](C)(C)CCO [Dicamba Cbase salt]	–	308.5	481.5	–	13.5 mPa	115	–	–	–	–
CNCCO.O=C(O)COc1ccc(Cl)cc1Cl [2,4-D MMEA salt]	–	–	–	–	–	–	302.5	774.3	21.2 mPa	110
CC(C)CN.O=C(O)COc1ccc(Cl)cc1Cl [2,4-D MIBA salt]	–	–	–	–	–	–	183.5	497.8	60.1 mPa	155
CN(C)CCCN.O=C(O)COc1ccc(Cl)cc1Cl [2,4-D DMAPA salt]	–	–	–	–	–	–	210.6	863.5	1,455.0 mPa	125
CNC.COc1c(Cl)ccc(Cl)c1C(=O)O [Dicamba DMA salt, reference compound]	–	211.1	1036.8	1036	58.8 mPa	135	–	–	–	–
COc1c(Cl)ccc(Cl)c1C(=O)O.NCCOCCO [Dicamba DGA salt, reference compound]	–	435.5	854.9	854.9	562.5 mPa	120	–	–	–	–
CC(C)CN.COc1c(Cl)ccc(Cl)c1C(=O)O [Dicamba MIBA salt]	–	475.0	713.7	–	46.1 mPa	130	–	–	–	–
C[N+](C)(C)CCO.O=C([O-])COc1ccc(Cl)cc1Cl [2,4-D Cbase salt, reference compound]	–	–	–	–	–	–	315.6	195.0	12.4 mPa	145
CNC.O=C(O)COc1ccc(Cl)cc1Cl [2,4-D DMA salt, reference compound]	–	–	–	–	–	–	264.4	936.1	38.8 mPa	130
CN(C)CCO.COc1c(Cl)ccc(Cl)c1C(=O)O [Dicamba DMAE salt]	–	408.3	849.0	–	184.4 mPa	115	–	–	–	–
